Results: PMC3326631, “Synthesis and biological evaluation of nojirimycin- and pyrrolidine-based trehalase inhibitors” (Beilstein Journal of Organic Chemistry, 2012)
Entries after “also recorded” stand apart in the source; their conditions may differ. Read-outs that look alike come from different tables or passages of the source.

Key:
C. riparius trehalase = C. riparius trehalase (Chironomus riparius, UniProt J7EJ73); assay: Trehalase inhibition, coupled assay with glucose-6-phosphate dehydrogenase and hexokinase (insect enzyme); format: biochemical; conditions: for selectivity between insect and porcine trehalase (times more active): C. riparius trehalase versus porcine kidney trehalase, from IC50 values; for inhibitory activity against insect trehalase (in words): screening at fixed concentration of 1 mM; for IC50 C. riparius trehalase: trehalose fixed close to Km (0.5 mM), 30 °C, mean ± SE of three independent experiments
Description: (§1) Trehalase activity was measured through a coupled assay with glucose-6-phosphate dehydrogenase and hexokinase according to Wegener et al.. To examine the potential of each compound as a trehalase inhibitor, screening assays of potential inhibitors were carried out at a fixed concentration of 1 mM. […] Initial rates as a function of inhibitor concentration were fitted to the following equation: […]
(§2) where νi and ν are the initial rate in the presence and in the absence of the inhibitor, respectively, [I] is the inhibitor concentration, IC50 is the inhibitor concentration producing half-maximal inhibition, and n is the Hill coefficient.
(§3) All enzyme assays were performed in triplicate at 30 °C by using sample volumes varying from 5 to 20 µL in 1 mL test tubes and using a Cary3 UV–vis spectrophotometer. Enzyme activities were analyzed by Cary Win UV application software for Windows XP. The specific activity (U mg^−1) was expressed as µmol min^−1(mg protein)^−1. Values were expressed as mean ± SE of replicated.

porcine kidney trehalase [1] = molecular target: T1, porcine kidney trehalase (Sus scrofa, UniProt I3LIR5); conditions: mean ± SE, cited from earlier work
T1 construct: trehalases from porcine kidney and insects have different recognition requirements; from tissue; host or cells: porcine kidney
T1 sequence (I3LIR5 24-583): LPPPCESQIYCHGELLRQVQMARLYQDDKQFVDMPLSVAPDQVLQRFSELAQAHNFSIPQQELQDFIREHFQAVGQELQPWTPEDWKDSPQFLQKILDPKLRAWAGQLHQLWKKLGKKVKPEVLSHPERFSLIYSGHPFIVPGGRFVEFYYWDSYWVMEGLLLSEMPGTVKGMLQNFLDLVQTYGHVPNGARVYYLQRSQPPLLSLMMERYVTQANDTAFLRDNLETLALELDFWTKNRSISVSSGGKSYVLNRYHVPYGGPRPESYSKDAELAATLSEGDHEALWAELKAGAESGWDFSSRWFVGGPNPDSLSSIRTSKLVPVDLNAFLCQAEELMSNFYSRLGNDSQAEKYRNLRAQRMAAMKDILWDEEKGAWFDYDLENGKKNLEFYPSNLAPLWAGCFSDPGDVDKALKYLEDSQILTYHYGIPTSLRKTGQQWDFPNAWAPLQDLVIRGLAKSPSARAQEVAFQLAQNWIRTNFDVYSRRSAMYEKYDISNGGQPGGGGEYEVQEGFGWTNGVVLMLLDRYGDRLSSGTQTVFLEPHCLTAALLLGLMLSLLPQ

porcine kidney trehalase [2] = molecular target: T1, porcine kidney trehalase; assay: Trehalase inhibition, coupled assay with glucose-6-phosphate dehydrogenase and hexokinase (porcine enzyme); format: biochemical; conditions: for inhibitory activity against porcine trehalase (in words): screening at fixed concentration of 1 mM; for IC50 porcine kidney trehalase / IC50: trehalose fixed close to Km (2.5 mM), 30 °C, mean ± SE of three independent experiments
Description: Synthesized compounds 10, 12–14, 16, 17 and 19–21 were tested for their inhibitory activity against insect (C. riparius) and porcine kidney trehalase.
as §1, with “Even if the synthesis unexpectedly afforded a structurally quite heterogeneous set of compounds, biological data give some hints toward the design of selective inhibitors of trehalases of different origin. Trehalase” for “Trehalase”
as §2, §3

Chain of C. riparius trehalase (J7EJ73 entry or part of it): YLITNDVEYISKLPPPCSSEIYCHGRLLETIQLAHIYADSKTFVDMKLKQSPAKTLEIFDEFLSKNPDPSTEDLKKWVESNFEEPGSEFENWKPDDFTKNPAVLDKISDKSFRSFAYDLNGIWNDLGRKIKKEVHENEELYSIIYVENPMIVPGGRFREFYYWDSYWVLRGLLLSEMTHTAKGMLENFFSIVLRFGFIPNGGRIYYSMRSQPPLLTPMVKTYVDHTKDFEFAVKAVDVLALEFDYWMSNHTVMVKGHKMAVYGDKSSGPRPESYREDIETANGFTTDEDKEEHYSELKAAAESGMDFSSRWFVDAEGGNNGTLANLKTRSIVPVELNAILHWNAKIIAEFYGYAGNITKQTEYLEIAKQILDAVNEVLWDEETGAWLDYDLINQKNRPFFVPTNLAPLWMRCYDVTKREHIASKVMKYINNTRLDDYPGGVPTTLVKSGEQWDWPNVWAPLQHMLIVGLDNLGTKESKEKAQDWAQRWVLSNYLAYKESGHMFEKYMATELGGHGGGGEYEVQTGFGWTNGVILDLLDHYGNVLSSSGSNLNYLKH

SMILES: OC[C@H]1NC[C@H](O)[C@@H](O)[C@@H]1O [Compound 7, 1-deoxynojirimycin, reference compound]
- selectivity between insect and porcine trehalase (times more active) (C. riparius trehalase): only twice as active on insect trehalase
- IC50 (porcine kidney trehalase [1]): 5.96 ± 0.62 µM

SMILES: CC[C@@H]1[C@H](O)[C@@H](O)[C@H](O)[C@@H](CO)N1C(=O)NCc1ccccc1 [Compound 8]
- IC50 (porcine kidney trehalase [1]; trehalose fixed at Km): 100 ± 8.82 µM

SMILES: OC[C@H]1NC[C@@H](O)[C@@H]1O [Compound 9, DAB-1, reference compound]
- selectivity between insect and porcine trehalase (times more active) (C. riparius trehalase): twice more active on porcine trehalase
- IC50 (porcine kidney trehalase [1]; trehalose fixed at Km): 10.6 ± 2.42 µM

SMILES: CCC[C@@H]1[C@H](O)[C@@H](O)[C@H](O)[C@@H](CO)N1C(=O)NCc1ccccc1 [Compound 10]
- inhibitory activity against insect trehalase (in words) (C. riparius trehalase): inhibitors only of insect trehalase
- inhibitory activity against porcine trehalase (in words) (porcine kidney trehalase [2]): no activity
- IC50 porcine kidney trehalase (porcine kidney trehalase [2]): no inhibition

SMILES: NC(=O)N1C[C@H](O)[C@@H](O)[C@H](O)[C@H]1CO [Compound 12]
- selectivity between insect and porcine trehalase (times more active) (C. riparius trehalase): five times
- inhibitory activity against porcine trehalase (in words) (porcine kidney trehalase [2]): active
- IC50 (porcine kidney trehalase [2]): 154 ± 17 µM

SMILES: CCC[C@H]1N[C@H](CO)[C@@H](O)[C@H](O)[C@H]1O [Compound 13]
- selectivity between insect and porcine trehalase (times more active) (C. riparius trehalase): around ten times more active towards insect trehalase; also recorded: ten-fold selectivity towards insect trehalase
- inhibitory activity against porcine trehalase (in words) (porcine kidney trehalase [2]): active
- IC50 (porcine kidney trehalase [2]): 109 ± 38 µM

SMILES: CCC[C@H]1N[C@H](CO)[C@@H](O)[C@@H]1O [Compound 14]
- inhibitory activity against insect trehalase (in words) (C. riparius trehalase): inhibitors only of insect trehalase
- inhibitory activity against porcine trehalase (in words) (porcine kidney trehalase [2]): no activity
- IC50 porcine kidney trehalase (porcine kidney trehalase [2]): no inhibition

SMILES: CCC[C@@H]1[C@@H](O)[C@H](O)[C@@H](CO)N1C(N)=O [Compound 16]
- inhibitory activity against insect trehalase (in words) (C. riparius trehalase): inhibitors only of insect trehalase
- inhibitory activity against porcine trehalase (in words) (porcine kidney trehalase [2]): no activity
- IC50 porcine kidney trehalase (porcine kidney trehalase [2]): no inhibition

SMILES: CCC[C@@H]1N[C@H](CO)[C@@H](O)[C@H]1O [Compound 17]
- inhibitory activity against insect trehalase (in words) (C. riparius trehalase): do not possess any activity
- IC50 C. riparius trehalase (C. riparius trehalase): no inhibition
- inhibitory activity against porcine trehalase (in words) (porcine kidney trehalase [2]): do not possess any activity
- IC50 porcine kidney trehalase (porcine kidney trehalase [2]): no inhibition

SMILES: CCC[C@H]1[C@H](O)[C@H](O)[C@@H](CO)N1C(N)=O [Compound 19]
- inhibitory activity against insect trehalase (in words) (C. riparius trehalase): do not possess any activity
- IC50 C. riparius trehalase (C. riparius trehalase): no inhibition
- inhibitory activity against porcine trehalase (in words) (porcine kidney trehalase [2]): do not possess any activity
- IC50 porcine kidney trehalase (porcine kidney trehalase [2]): no inhibition

SMILES: CCCCCCCCN1C[C@@H](O)[C@H](O)[C@H]1CO [Compound 20]
- inhibitory activity against porcine trehalase (in words) (porcine kidney trehalase [2]): active
- IC50 (porcine kidney trehalase [2]): 537 ± 80 µM

SMILES: CCCCCCCC[C@H]1N[C@H](CO)[C@@H](O)[C@@H]1O [Compound 21]
- IC50 C. riparius trehalase (C. riparius trehalase): no inhibition
- IC50 porcine kidney trehalase (porcine kidney trehalase [2]): no inhibition
